This note sets out measurements from publication PMC11513923, “Discovery of ZLC491 as a Potent, Selective, and Orally Bioavailable CDK12/13 PROTAC Degrader” (Journal of Medicinal Chemistry, 2024).

What all share (experiment): TMT-labeled quantitative proteomics in MDA-MB-231 cells
Experiment [1] addresses CDK12 (Homo sapiens, UniProt Q9NYV4). In kind it is cell-based. Particulars: 8 h. The arrangement: endogenous in cells; host or cells: MDA-MB-231. The protocol: The global proteomic selectivity of ZLC491 was investigated by using the tandem mass tag (TMT) labeled mass-spectrometry. […] CDK13 was not detected in either degrader treatment groups or DMSO control groups, likely due to its insufficient cellular expression for mass spectrometry detection.
(§1) Figure 5 ZLC491 degraded CDK12/13 with high selectivity. (A) Global proteomic analysis of ZLC491 in MDA-MB-231 cells after 8 h treatment of DMSO or 2 μM ZLC491; (B) mass-spec quantification of CDKs changes; (C) immunoblotting of target protein degradation in samples for proteomic analysis.
(§2) MDA-MB-231 cells were seeded at 8 × 10^5 cells in 6 cm dishes 24 h before treating with 2 μM ZLC491 or DMSO in quadruplicate or triplicate for 8 h. Cell lysates were prepared by washing cells twice with cold PBS and adding 180 μL lysis buffer (10 mM HEPES, pH 7.0, 1% (w/v) SDS, 2 mM MgCl·6H2O supplemented with 0.1% BeyoZonase (Beyotime)) per dish. Samples were quantified using a micro-BCA protein assay kit (Thermo Fisher Scientific) and 600 μg of each sample was processed and digested using the filter aided sample preparation (FASP) method followed by alkylation with iodoacetamide and digestion with trypsin. The samples were then desalted using Oasis HLB C18 SPE cartridge column (Waters, WAT094225). The peptides were lyophilized and reconstituted, then 25 μg peptides of each sample were labeled with TMT 11-plex Isobaric Label Reagent Set (Thermo Fisher Scientific) as the manufacturer’s instructions. After labeling, the peptides from the 11 samples were pooled together. […]
(§3) The fractions were analyzed sequentially on an Orbitrap Fusion Lumos Mass Spectrometer (Thermo Scientific) coupled to a NanoLC-1200 UHPLC system (Thermo Scientific) with C18 capillary column. […] MS3 precursor were fragmented by HCD and analyzed with Orbitrap at NCE 65, AGC 1E5, resolution 60000.
(§4) The raw MS data files for all 11 fractions were searched against the Uniprot-Human-Canonical database by Proteome Discoverer 2.0 for protein identification and TMT reporter ion quantitation. […]

The subject of experiment [2] is B3GAT3. Format: cell-based, Homo sapiens. To be noted: 2 μM ZLC491 vs DMSO, 8 h. The protocol:
as §1
as §2, with “together. The pooled TMT 11-plex sample was fractionated using high pH reverse-phase chromatography on an XBridge peptide BEH column (130 Å, 3.5 μm, 2.1 × 150 mm, Waters) on an Ultimate 3000 HPLC system (Thermo Scientific/Dionex).” for “together.”
as §3, §4

The subject of experiment [3] is ARG2. In kind it is cell-based, Homo sapiens. Particulars: 2 μM ZLC491 vs DMSO, 8 h. The procedure:
as §1
as §2, with “together. The pooled TMT 11-plex sample was fractionated using high pH reverse-phase chromatography on an XBridge peptide BEH column (130 Å, 3.5 μm, 2.1 × 150 mm, Waters) on an Ultimate 3000 HPLC system (Thermo Scientific/Dionex).” for “together.”
as §3, §4

Experiment [4] relates to NME2. Format: cell-based, Homo sapiens. To be noted: 2 μM ZLC491 vs DMSO, 8 h. The protocol:
as §1
as §2, with “together. The pooled TMT 11-plex sample was fractionated using high pH reverse-phase chromatography on an XBridge peptide BEH column (130 Å, 3.5 μm, 2.1 × 150 mm, Waters) on an Ultimate 3000 HPLC system (Thermo Scientific/Dionex).” for “together.”
as §3, §4

CDK12, sequence (Q9NYV4 whole entry): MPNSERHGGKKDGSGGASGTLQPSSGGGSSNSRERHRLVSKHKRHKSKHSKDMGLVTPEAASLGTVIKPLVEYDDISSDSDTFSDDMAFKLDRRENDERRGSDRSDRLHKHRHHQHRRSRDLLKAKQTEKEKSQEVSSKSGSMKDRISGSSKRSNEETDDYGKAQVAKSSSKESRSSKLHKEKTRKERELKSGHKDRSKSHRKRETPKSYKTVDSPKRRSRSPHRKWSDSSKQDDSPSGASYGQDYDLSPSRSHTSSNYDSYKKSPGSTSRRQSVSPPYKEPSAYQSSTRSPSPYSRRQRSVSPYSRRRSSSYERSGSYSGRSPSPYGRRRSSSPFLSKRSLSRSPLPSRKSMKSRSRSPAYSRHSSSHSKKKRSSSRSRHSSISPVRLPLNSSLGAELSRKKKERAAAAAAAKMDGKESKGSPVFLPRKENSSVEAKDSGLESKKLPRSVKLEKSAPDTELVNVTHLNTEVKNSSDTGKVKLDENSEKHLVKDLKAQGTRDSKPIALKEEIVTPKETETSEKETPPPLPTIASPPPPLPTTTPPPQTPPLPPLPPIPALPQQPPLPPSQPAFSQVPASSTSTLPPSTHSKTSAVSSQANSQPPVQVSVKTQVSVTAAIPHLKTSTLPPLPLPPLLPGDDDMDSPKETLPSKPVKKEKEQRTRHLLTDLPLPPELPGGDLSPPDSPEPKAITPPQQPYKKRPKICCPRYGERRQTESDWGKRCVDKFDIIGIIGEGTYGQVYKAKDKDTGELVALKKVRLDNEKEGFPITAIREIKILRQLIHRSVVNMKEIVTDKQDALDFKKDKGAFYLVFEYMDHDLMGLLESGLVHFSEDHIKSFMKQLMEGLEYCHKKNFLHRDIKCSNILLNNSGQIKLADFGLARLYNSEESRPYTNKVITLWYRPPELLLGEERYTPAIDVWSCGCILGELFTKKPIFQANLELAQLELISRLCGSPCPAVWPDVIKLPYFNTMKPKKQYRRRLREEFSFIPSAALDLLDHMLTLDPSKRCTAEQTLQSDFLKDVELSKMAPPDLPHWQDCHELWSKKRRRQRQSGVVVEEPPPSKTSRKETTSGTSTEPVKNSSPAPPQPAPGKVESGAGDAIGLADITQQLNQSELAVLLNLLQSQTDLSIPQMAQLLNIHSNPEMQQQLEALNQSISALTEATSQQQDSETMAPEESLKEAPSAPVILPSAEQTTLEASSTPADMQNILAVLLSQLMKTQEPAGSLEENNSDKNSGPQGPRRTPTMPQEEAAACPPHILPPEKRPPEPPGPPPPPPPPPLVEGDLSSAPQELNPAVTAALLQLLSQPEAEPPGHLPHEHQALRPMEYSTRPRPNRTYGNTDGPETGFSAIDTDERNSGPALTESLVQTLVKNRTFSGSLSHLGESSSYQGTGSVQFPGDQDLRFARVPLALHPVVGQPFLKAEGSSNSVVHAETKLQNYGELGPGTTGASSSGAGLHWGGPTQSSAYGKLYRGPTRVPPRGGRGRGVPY
CDK12, sequence (O75909 whole entry partner): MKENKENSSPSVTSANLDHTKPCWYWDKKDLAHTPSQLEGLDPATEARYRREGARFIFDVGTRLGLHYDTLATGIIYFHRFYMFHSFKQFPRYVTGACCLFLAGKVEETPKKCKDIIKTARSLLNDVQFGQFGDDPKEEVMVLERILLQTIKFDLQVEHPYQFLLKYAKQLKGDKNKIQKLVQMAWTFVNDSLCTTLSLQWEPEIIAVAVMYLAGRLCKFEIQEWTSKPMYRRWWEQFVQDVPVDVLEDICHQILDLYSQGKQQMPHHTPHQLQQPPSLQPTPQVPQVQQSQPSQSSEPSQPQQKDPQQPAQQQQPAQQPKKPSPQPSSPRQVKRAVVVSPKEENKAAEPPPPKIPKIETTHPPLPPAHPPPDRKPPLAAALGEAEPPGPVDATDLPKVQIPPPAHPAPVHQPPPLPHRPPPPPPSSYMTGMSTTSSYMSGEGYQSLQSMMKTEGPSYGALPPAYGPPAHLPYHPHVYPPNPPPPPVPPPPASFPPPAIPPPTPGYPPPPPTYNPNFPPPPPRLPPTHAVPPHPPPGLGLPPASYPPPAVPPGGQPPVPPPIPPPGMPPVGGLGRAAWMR

For the molecule `N#Cc1ccc(N[C@H]2CC[C@H](N(C(=O)NCc3ccccc3)c3ccc(N4CCN(C5CCN(c6cc7c(cc6F)C(=O)N(C6CCC(=O)NC6=O)C7=O)CC5)CC4)cc3)CC2)nc1` (stereo partly drawn) [ZLC491, 3-Benzyl-1-((1r,4r)-4-((5-cyanopyridin-2-yl)amino)cyclohexyl)-1-(4-(4-(1-(2-(2,6-dioxopiperidin-3-yl)-6-fluoro-1,3-dioxoisoindolin-5-yl)piperidin-4-yl)piperazin-1-yl)phenyl)urea], the “FC_4-91 (CDK12)” value in experiment [1] (2 μM ZLC491 vs DMSO) is 0.249. In addition, in experiment [1] (2 μM), the “CDK12 level in global proteomics” value is “significantly decreased” and the “selectivity among CDKs in global proteomics” value is “selective for CDK12 over other CDKs”. Besides, the “FC_4-91 (B3GAT3)” value in experiment [2] was 1.982. Besides, the “FC_4-91 (ARG2)” value in experiment [3] is 1.14. In experiment [4], the “FC_4-91 (NME2)” value was 1.1277.
